Assay results as given in the NIST ThermoML archive (doi:10.1021/je900596d).
Numbers after ± are expanded uncertainties.

Settings: Vibrating tube method

FC(F)=C(F)C(F)(F)F [hexafluoropropene]
mass density (353.12 K, 2589.9 kPa, Fluid (supercritical or subcritical phases)): 239.58 ± 0.55 kg/m3
mass density (353.12 K, 2605.1 kPa, Fluid (supercritical or subcritical phases)): 243.48 ± 0.57 kg/m3
mass density (353.12 K, 2619.7 kPa, Fluid (supercritical or subcritical phases)): 247.37 ± 0.59 kg/m3
mass density (353.12 K, 2635.2 kPa, Fluid (supercritical or subcritical phases)): 251.52 ± 0.61 kg/m3
mass density (353.12 K, 2649.7 kPa, Fluid (supercritical or subcritical phases)): 255.58 ± 0.65 kg/m3
mass density (353.12 K, 2670.4 kPa, Fluid (supercritical or subcritical phases)): 261.98 ± 0.7 kg/m3
mass density (353.12 K, 2690 kPa, Fluid (supercritical or subcritical phases)): 268.46 ± 0.75 kg/m3
mass density (353.12 K, 2702.3 kPa, Fluid (supercritical or subcritical phases)): 272.91 ± 0.81 kg/m3
mass density (353.12 K, 2710.7 kPa, Fluid (supercritical or subcritical phases)): 275.88 ± 0.82 kg/m3
mass density (353.12 K, 2718.3 kPa, Fluid (supercritical or subcritical phases)): 278.85 ± 0.85 kg/m3
mass density (353.12 K, 2725 kPa, Fluid (supercritical or subcritical phases)): 281.55 ± 0.89 kg/m3
mass density (353.12 K, 2731.2 kPa, Fluid (supercritical or subcritical phases)): 284.3 ± 0.93 kg/m3
mass density (353.12 K, 2737.4 kPa, Fluid (supercritical or subcritical phases)): 286.74 ± 0.95 kg/m3
mass density (353.12 K, 2744.8 kPa, Fluid (supercritical or subcritical phases)): 290.14 ± 1 kg/m3
mass density (353.12 K, 2751.1 kPa, Fluid (supercritical or subcritical phases)): 293.08 ± 1.1 kg/m3
mass density (353.12 K, 2757.6 kPa, Fluid (supercritical or subcritical phases)): 296.25 ± 1.1 kg/m3
mass density (353.12 K, 2764.5 kPa, Fluid (supercritical or subcritical phases)): 299.88 ± 1.1 kg/m3
mass density (353.12 K, 2771.7 kPa, Fluid (supercritical or subcritical phases)): 303.81 ± 1.2 kg/m3
mass density (353.13 K, 2798.4 kPa, Liquid): 887.06 ± 1.3 kg/m3
mass density (353.13 K, 2805.3 kPa, Liquid): 888.96 ± 1.3 kg/m3
mass density (353.13 K, 2812.6 kPa, Liquid): 890.6 ± 1.3 kg/m3
mass density (353.13 K, 2818.9 kPa, Liquid): 891.84 ± 1.3 kg/m3
mass density (353.13 K, 2825.7 kPa, Liquid): 893.67 ± 1.2 kg/m3
mass density (353.13 K, 2832.6 kPa, Liquid): 894.71 ± 1.2 kg/m3
mass density (353.13 K, 2839.4 kPa, Liquid): 896.74 ± 1.2 kg/m3
mass density (353.13 K, 2846 kPa, Liquid): 898.09 ± 1.2 kg/m3
mass density (353.13 K, 2852.6 kPa, Liquid): 899.46 ± 1.2 kg/m3
mass density (353.13 K, 2859.8 kPa, Liquid): 900.81 ± 1.2 kg/m3
mass density (353.13 K, 2866.7 kPa, Liquid): 902.11 ± 1.2 kg/m3
mass density (353.13 K, 2873.8 kPa, Liquid): 903.63 ± 1.2 kg/m3
mass density (353.13 K, 2881 kPa, Liquid): 904.67 ± 1.2 kg/m3
mass density (353.13 K, 2888.2 kPa, Liquid): 906.06 ± 1.2 kg/m3
mass density (353.13 K, 2908.5 kPa, Liquid): 909.29 ± 1.3 kg/m3
mass density (353.13 K, 2928.4 kPa, Liquid): 912.84 ± 1.3 kg/m3
mass density (353.13 K, 2948.2 kPa, Liquid): 915.77 ± 1.2 kg/m3
mass density (353.13 K, 2969.5 kPa, Liquid): 918.7 ± 1.2 kg/m3
mass density (353.13 K, 2989.9 kPa, Liquid): 921.51 ± 1.2 kg/m3
mass density (353.13 K, 3009.6 kPa, Liquid): 924.14 ± 1.2 kg/m3
mass density (353.13 K, 3030.5 kPa, Liquid): 926.96 ± 1.2 kg/m3
mass density (353.13 K, 3051.7 kPa, Liquid): 929.82 ± 1.2 kg/m3
mass density (353.13 K, 3072.6 kPa, Liquid): 932.36 ± 1.1 kg/m3
mass density (353.13 K, 3094.1 kPa, Liquid): 935.03 ± 1.1 kg/m3
mass density (353.13 K, 3116.1 kPa, Liquid): 937.73 ± 1.1 kg/m3
mass density (353.13 K, 3136.7 kPa, Liquid): 940.03 ± 1.1 kg/m3
mass density (353.13 K, 3159.1 kPa, Liquid): 942.35 ± 1.1 kg/m3
mass density (353.13 K, 3182.1 kPa, Liquid): 944.69 ± 1.2 kg/m3
mass density (353.13 K, 3205.5 kPa, Liquid): 946.93 ± 1.1 kg/m3
mass density (353.13 K, 3225.2 kPa, Liquid): 948.79 ± 1.1 kg/m3
mass density (353.13 K, 3246.7 kPa, Liquid): 950.79 ± 1.1 kg/m3
mass density (353.13 K, 3265.8 kPa, Liquid): 952.67 ± 1.1 kg/m3
mass density (353.13 K, 3286.3 kPa, Liquid): 954.54 ± 1.1 kg/m3
mass density (353.13 K, 3309.6 kPa, Liquid): 956.7 ± 1.1 kg/m3
mass density (353.13 K, 3330.5 kPa, Liquid): 958.57 ± 1.1 kg/m3
mass density (353.13 K, 3353 kPa, Liquid): 960.43 ± 1.1 kg/m3
mass density (353.13 K, 3369.2 kPa, Liquid): 961.77 ± 1.1 kg/m3
mass density (353.13 K, 3392.7 kPa, Liquid): 963.71 ± 1.1 kg/m3
mass density (353.13 K, 3399 kPa, Liquid): 964.17 ± 1.1 kg/m3
mass density (353.13 K, 3429.5 kPa, Liquid): 966.86 ± 1.1 kg/m3
mass density (353.13 K, 3457.9 kPa, Liquid): 969.07 ± 1.1 kg/m3
mass density (353.13 K, 3487.3 kPa, Liquid): 971.26 ± 1.1 kg/m3
mass density (353.13 K, 3521.2 kPa, Liquid): 973.81 ± 1.1 kg/m3
mass density (353.13 K, 3546.8 kPa, Liquid): 975.65 ± 1.1 kg/m3
mass density (353.13 K, 3574.3 kPa, Liquid): 977.54 ± 1.1 kg/m3
mass density (353.13 K, 3599.5 kPa, Liquid): 979.42 ± 1.1 kg/m3
mass density (353.13 K, 3626.9 kPa, Liquid): 981.32 ± 1.1 kg/m3
mass density (353.13 K, 3653.9 kPa, Liquid): 982.94 ± 1.1 kg/m3
mass density (353.13 K, 3680.4 kPa, Liquid): 984.8 ± 1.1 kg/m3
mass density (353.13 K, 3736 kPa, Liquid): 988.5 ± 1.1 kg/m3
mass density (353.13 K, 3763.9 kPa, Liquid): 990.13 ± 1.1 kg/m3
mass density (353.13 K, 3788.8 kPa, Liquid): 991.7 ± 1.1 kg/m3
mass density (353.13 K, 3815.8 kPa, Liquid): 993.28 ± 1.1 kg/m3
mass density (353.13 K, 3840.7 kPa, Liquid): 994.81 ± 1.1 kg/m3
mass density (353.13 K, 3865.5 kPa, Liquid): 996.26 ± 1.1 kg/m3
mass density (353.13 K, 3891.9 kPa, Liquid): 997.74 ± 1.1 kg/m3
mass density (353.13 K, 3918.8 kPa, Liquid): 999.3 ± 1.1 kg/m3
mass density (353.13 K, 3943.7 kPa, Liquid): 1000.71 ± 1.1 kg/m3
mass density (353.13 K, 3971.8 kPa, Liquid): 1002.02 ± 1.1 kg/m3
mass density (353.13 K, 3985.4 kPa, Liquid): 1002.96 ± 1.1 kg/m3
mass density (353.13 K, 4027.5 kPa, Liquid): 1005.16 ± 1.1 kg/m3
mass density (353.13 K, 4066.7 kPa, Liquid): 1007.14 ± 1.1 kg/m3
mass density (353.13 K, 4105.8 kPa, Liquid): 1009.21 ± 1.1 kg/m3
mass density (353.13 K, 4146.8 kPa, Liquid): 1011.34 ± 1.1 kg/m3
mass density (353.13 K, 4185.8 kPa, Liquid): 1013.28 ± 1.1 kg/m3
mass density (353.13 K, 4216 kPa, Liquid): 1014.76 ± 1.1 kg/m3
mass density (353.13 K, 4257.8 kPa, Liquid): 1016.64 ± 1.1 kg/m3
mass density (353.13 K, 4298.4 kPa, Liquid): 1018.66 ± 1.1 kg/m3
mass density (353.13 K, 4335.1 kPa, Liquid): 1020.3 ± 1.1 kg/m3
mass density (353.13 K, 4374.3 kPa, Liquid): 1022.01 ± 1.1 kg/m3
mass density (353.13 K, 4415.3 kPa, Liquid): 1023.76 ± 1.1 kg/m3
mass density (353.13 K, 4454.8 kPa, Liquid): 1025.55 ± 1.1 kg/m3
mass density (353.13 K, 4494.4 kPa, Liquid): 1027.22 ± 1.1 kg/m3
mass density (353.13 K, 4534 kPa, Liquid): 1028.89 ± 1.1 kg/m3
mass density (353.13 K, 4574.1 kPa, Liquid): 1030.62 ± 1.1 kg/m3
mass density (353.13 K, 4611.4 kPa, Liquid): 1032.18 ± 1.1 kg/m3
mass density (353.13 K, 4650.8 kPa, Liquid): 1033.77 ± 1.1 kg/m3
mass density (353.13 K, 4692 kPa, Liquid): 1035.33 ± 1.1 kg/m3
mass density (353.13 K, 4731.2 kPa, Liquid): 1036.88 ± 1.1 kg/m3
mass density (353.13 K, 4772.4 kPa, Liquid): 1038.52 ± 1.1 kg/m3
mass density (353.13 K, 4813.3 kPa, Liquid): 1040.05 ± 1.1 kg/m3
mass density (353.13 K, 4854.9 kPa, Liquid): 1041.63 ± 1.1 kg/m3
mass density (353.13 K, 4892.5 kPa, Liquid): 1043.01 ± 1.1 kg/m3
mass density (353.13 K, 4933.3 kPa, Liquid): 1044.53 ± 1.1 kg/m3
mass density (353.13 K, 4970.7 kPa, Liquid): 1045.82 ± 1.1 kg/m3
mass density (353.13 K, 5012.1 kPa, Liquid): 1047.29 ± 1.1 kg/m3
mass density (353.13 K, 5052.5 kPa, Liquid): 1048.76 ± 1.1 kg/m3
mass density (353.13 K, 5091.9 kPa, Liquid): 1050.11 ± 1.1 kg/m3
mass density (353.13 K, 5130 kPa, Liquid): 1051.53 ± 1.1 kg/m3
mass density (353.13 K, 5169.1 kPa, Liquid): 1052.89 ± 1.1 kg/m3
mass density (353.13 K, 5208.1 kPa, Liquid): 1054.11 ± 1.1 kg/m3
mass density (353.13 K, 5247 kPa, Liquid): 1055.36 ± 1.1 kg/m3
mass density (353.13 K, 5287.6 kPa, Liquid): 1056.62 ± 1.1 kg/m3
mass density (353.13 K, 5325.3 kPa, Liquid): 1057.82 ± 1.1 kg/m3
mass density (353.13 K, 5365.1 kPa, Liquid): 1059.19 ± 1.1 kg/m3
mass density (353.13 K, 5403.1 kPa, Liquid): 1060.48 ± 1.1 kg/m3
mass density (353.13 K, 5442.6 kPa, Liquid): 1061.62 ± 1.1 kg/m3
mass density (353.13 K, 5480.8 kPa, Liquid): 1062.93 ± 1.1 kg/m3
mass density (353.13 K, 5559.8 kPa, Liquid): 1065.32 ± 1.1 kg/m3
mass density (353.13 K, 5597.5 kPa, Liquid): 1066.51 ± 1.1 kg/m3
mass density (353.13 K, 5634.9 kPa, Liquid): 1067.6 ± 1.1 kg/m3
mass density (353.13 K, 5673 kPa, Liquid): 1068.78 ± 1.1 kg/m3
mass density (353.13 K, 5711.7 kPa, Liquid): 1069.91 ± 1.1 kg/m3
mass density (353.13 K, 5751 kPa, Liquid): 1071.01 ± 1.1 kg/m3
mass density (353.13 K, 5788.5 kPa, Liquid): 1072.12 ± 1.1 kg/m3
mass density (353.13 K, 5826.7 kPa, Liquid): 1073.17 ± 1.1 kg/m3
mass density (353.13 K, 5865.4 kPa, Liquid): 1074.15 ± 1.1 kg/m3
mass density (353.13 K, 5902.7 kPa, Liquid): 1075.33 ± 1.1 kg/m3
mass density (353.13 K, 5941.8 kPa, Liquid): 1076.43 ± 1.1 kg/m3
mass density (353.13 K, 5981.5 kPa, Liquid): 1077.54 ± 1.1 kg/m3
mass density (353.13 K, 6019.6 kPa, Liquid): 1078.56 ± 1.1 kg/m3
mass density (353.13 K, 6060.4 kPa, Liquid): 1079.62 ± 1.1 kg/m3
mass density (353.13 K, 6101 kPa, Liquid): 1080.65 ± 1.1 kg/m3
mass density (353.13 K, 6140.3 kPa, Liquid): 1081.81 ± 1.1 kg/m3
mass density (353.13 K, 6177.9 kPa, Liquid): 1082.78 ± 1.1 kg/m3
mass density (353.13 K, 6216.7 kPa, Liquid): 1083.8 ± 1.1 kg/m3
